The values below come from patent US20030225152A1, “3-(Arylamino)methylene-1, 3-dihydro-2h-indol-2-ones as kinase inhibitors” (priority 2001, published 2003).

SMILES strings stand for the structures. A value given as a limit tells only on which side of the number the result lay.

In assay [1] the test system is VEGF induced increases in intracellular calcium levels in HUVEC (human umbilical vein endothelial cells). In words: VEGF Stimulated Ca++ Signal in vitro (FLIPR). Format: cell-based. The note with it: VEGF 5 ng/mL; for IC50: 0.01 to 10.0 μM. The procedure, abridged: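 HUVEC loaded with Fluo-4 (45 min, 37° C.), washed, then pre-incubated 30 min with compound (10 μM single dose or 0.01–10.0 μM; 0.1% DMSO) before 5 ng/mL VEGF. Fluorescence at 516 nm read by FLIPR; IC50 from % inhibition of max-min VEGF response.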

Assay [2] has as its target T1, cytoplasmic domain of the human VEGF receptor (VEGFR-2) (Homo sapiens, UniProt P35968).
T1 construct: The cytoplasmic domain of the human VEGF receptor (VEGFR-2) was expressed as a Histidine-tagged fusion protein; Histidine tag
Put plainly: KDR Assay. Format: biochemical. The note with it: His-VEGFR-2; 3.6 μM ATP. The protocol:
The cytoplasmic domain of the human VEGF receptor (VEGFR-2) was expressed as a Histidine-tagged fusion protein following infection of insect cells using an engineered baculovirus. His-VEGFR-2 was purified to homogeneity, as determined by SDS-PAGE, using nickel resin chromatography. Kinase assays were performed in 96 well microtiter plates that were coated overnight with 30 μg of poly-Glu-Tyr (4:1) in 10 mM Phosphate Buffered Saline (PBS), pH 7.2-7.4. The plates were incubated with 1% BSA and then washed four times with PBS prior to starting the reaction. Reactions were carried out in 120 μL reaction volumes containing 3.6 μM ATP in kinase buffer (50 mM Hepes buffer pH 7.4, 20 mM MgCl2, 0.1 mM MnCl2 and 0.2 mM Na3VO4). Test compounds were reconstituted in 100% DMSO and added to the reaction to give a final DMSO concentration of 5%. Reactions were initiated by the addition 0.5 ng of purified protein. Following a ten minute incubation at 25° C., the reactions were washed four times with PBS containing 0.05% Tween-20. 100 μl of a monoclonal anti-phosphotyrosine antibody-peroxidase conjugate was diluted 1:10000 in PBS-Tween-20 and added to the wells for 30 minutes. Following four washes with PBS-Tween-20, 100 μl of O-phenylenediamine Dihydrochloride in Phosphate-citrate buffer, containing urea hydrogen peroxide, was added to the wells for 7 minutes as a colorimetric substrate for the peroxidase. The reaction was terminated by the addition of 100 μl of 2.5N H2SO4 to each well and read using a microplate ELISA reader set at 492 nm. IC50 values for compound inhibition were calculated directly from graphs of optical density (arbitrary units) versus compound concentration following subtraction of blank values.

T1 sequence (P35968 786-1356): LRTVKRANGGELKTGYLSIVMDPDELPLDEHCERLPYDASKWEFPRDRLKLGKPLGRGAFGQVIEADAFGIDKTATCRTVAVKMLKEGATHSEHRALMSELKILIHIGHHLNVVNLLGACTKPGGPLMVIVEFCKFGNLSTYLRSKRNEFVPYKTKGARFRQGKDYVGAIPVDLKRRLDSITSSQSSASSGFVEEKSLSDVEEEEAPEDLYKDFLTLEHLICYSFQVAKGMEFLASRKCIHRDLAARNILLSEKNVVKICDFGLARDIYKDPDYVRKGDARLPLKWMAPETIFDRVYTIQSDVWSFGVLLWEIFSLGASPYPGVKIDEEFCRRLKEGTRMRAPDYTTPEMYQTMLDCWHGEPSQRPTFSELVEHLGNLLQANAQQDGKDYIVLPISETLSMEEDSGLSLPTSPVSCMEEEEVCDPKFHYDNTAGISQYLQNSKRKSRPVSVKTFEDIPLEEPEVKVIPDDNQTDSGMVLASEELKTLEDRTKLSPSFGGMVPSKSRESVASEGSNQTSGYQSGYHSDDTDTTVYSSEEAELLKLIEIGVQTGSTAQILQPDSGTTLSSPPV

Broadly, the inhibition is the change of the read-out against control, counted positive when it falls. Broadly, the IC50 is the concentration needed to halve the response being measured. `COc1cc(NC=C2C(=O)Nc3ccccc32)cc(OC)c1` [Example 16, 3-[(3,5-Dimethoxy-phenylamino)-methylene]-1,3-dihydro-indol-2-one]: the inhibition at 10 µM in assay [1] (Homo sapiens, 10 μM) is 50%. For the same compound, the IC50 was not below 10 µM in assay [1] (Homo sapiens) and 1.27 µM in assay [2].
Taken in the same sequence, the figures for `CC(C)(C)c1ccc(NC=C2C(=O)Nc3ccccc32)cc1` [Example 17, 3-[(4-tert-Butyl-phenylamino)-methylene]-1,3-dihydro-indol-2-one] were 76.5%, 3 µM and 0.79 µM.
As to `Cc1ccc(NC=C2C(=O)Nc3ccccc32)cc1C` [Example 20, 3-[(3,4-Dimethyl-phenylamino)-methylene]-1,3-dihydro-indol-2-one], the inhibition at 10 µM in assay [1] (Homo sapiens, 10 μM) was found to be 63%. The IC50 in assay [1] (Homo sapiens) is 1.82 µM; in assay [2], 1.21 µM.
`COc1ccc(NC=C2C(=O)Nc3ccccc32)cc1F` [Example 21, 3-[(3-Fluoro-4-methoxy-phenylamino)-methylene]-1,3-dihydro-indol-2-one]: the inhibition at 10 µM in assay [1] (Homo sapiens, 10 μM) is 88%. Also, the IC50 came to 1.5 µM in assay [1] (Homo sapiens) and 0.72 µM in assay [2].
Taken in the same sequence, the figures for `N#Cc1ccc(NC=C2C(=O)Nc3ccccc32)cc1` [Example 29, 3-[(4-Cyanophenylamino)-methylene]-1,3-dihydro-indol-2-one] were 81.5%, 7.29 µM and 0.68 µM.
Turning to `O=C1Nc2ccccc2C1=CNc1ccc2[nH]ccc2c1` [Example 31, 3-[(5-Indolylamino)-methylene]-1,3-dihydro-indol-2-one], the IC50 in assay [1] is 0.72 µM; in assay [1] (Homo sapiens) it was not above 1 µM; in assay [2] it was 0.57 µM. The inhibition at 10 µM in assay [1] (Homo sapiens, 10 μM) came to 98.6%.
With `O=C1Nc2ccccc2C1=CNc1ccc2[nH]ncc2c1` [Example 32, 3-[(5-Indazolylamino)-methylene]-1,3-dihydro-indol-2-one], in assay [1] (Homo sapiens, 10 μM), the inhibition at 10 µM is 72.2%. Besides, the IC50 was found to be 2.66 µM in assay [1] (Homo sapiens) and 0.6 µM in assay [2].
Taken in the same sequence, the figures for `NC(=O)c1ccc(NC=C2C(=O)Nc3ccccc32)cc1` [Example 33, 3-[(4-Benzamidylamino)-methylene]-1,3-dihydro-indol-2-one] were 95.9%, 1.35 µM and 0.88 µM.
Taken in the same sequence, the figures for `CC(=O)Nc1ccc(NC=C2C(=O)Nc3ccccc32)cc1` [Example 34, 3-[(4-Acetanilidylamino)-methylene]-1,3-dihydro-indol-2-one] were 94.5%, 2.25 µM and 0.47 µM.
Taken in the same sequence, the figures for `O=C(O)Cc1cccc(NC=C2C(=O)Nc3ccccc32)c1` [Example 35, (3-[(2-Oxo-1,2-dihydro-indol-3-ylidenemethyl)-amino]-phenyl-)acetic acid] were 95.1%, 3.1 µM and 0.19 µM.
On to `NS(=O)(=O)c1ccc(NC=C2C(=O)Nc3ccccc32)cc1` [Example 38, 2-Oxo-1,2-dihydro-indol-3-ylidenemethyl-sulfanilamide], for which the “VEGF Stimulated Ca^++ signal assay % inhibition @ 10 μM” value in assay [1] (10 μM) is 92.08%. Further, the IC50 in assay [1] turned out to be 1.45 µM; in assay [2], 0.5 µM.
`O=C1Nc2ccccc2C1=CNc1ccc2ncsc2c1` [Example 43, 3-[(6-Benzthioazolylamino)-methylene]-1,3-dihydro-indol-2-one]: in assay [1] (Homo sapiens, 10 μM), the inhibition at 10 µM turned out to be 84%. The concentration for half-maximal inhibition (IC50) in assay [1] (Homo sapiens) is 1.74 µM; in assay [2], 0.23 µM.
Taken in the same sequence, the figures for `O=C1Nc2ccccc2C1=CNc1ccc(C(=O)O)c(O)c1` [Example 44, 2-Hydroxy-4-[(2-oxo-1,2-dihydro-indol-3-ylidenemethyl)-amino]-benzoic acid] were 96%, 2.02 µM and 0.66 µM.
With `Cc1ccc(NC=C2C(=O)Nc3ccccc32)cc1O` [Example 48, 3-[(3-Hydroxy-4-methyl-phenylamino)-methylene]-1,3-dihydro-indol-2-one], the inhibition at 10 µM in assay [1] (Homo sapiens, 10 μM) turned out to be 95.4%. Also, the concentration for half-maximal inhibition (IC50) in assay [2] was 0.74 µM.
`COc1ccc(NC=C2C(=O)Nc3ccccc32)cc1O` [Example 49, 3-[(3-Hydroxy-4-methoxy-phenylamino)-methylene]-1,3-dihydro-indol-2-one]: the inhibition at 10 µM in assay [1] (Homo sapiens, 10 μM) amounted to 97.1%. In addition, half-maximal inhibition in assay [2] (IC50) was put at 0.51 µM.
With `O=C1Nc2ccccc2C1=CNc1ccc(OC(F)F)cc1` [Example 50, 3-{[4-(1,1-Difluoro-methoxy)-phenylamino]-methylene}-1,3-dihydro-indol-2-one], in assay [1] (Homo sapiens, 10 μM), the inhibition at 10 µM worked out at 93.5%. The IC50 came out at 1.65 µM in assay [1] (Homo sapiens) and 0.55 µM in assay [2].
Taken in the same sequence, the figures for `CC(C)c1ccc(NC=C2C(=O)Nc3ccccc32)cc1` [Example 52, 3-[(4-Isopropyl-phenylamino)-methylene]-1,3-dihydro-indol-2-one] were 69%, 2.28 µM and 0.58 µM.
Taken in the same sequence, the figures for `COc1cccc(NC=C2C(=O)Nc3ccc(Cl)cc32)c1` [Example 57, 5-Chloro-3-[(3-methoxy-phenylamino)-methylene]-1,3-dihydro-indol-2-one] were 60%, 5.85 µM and 1.88 µM.
Regarding `Cc1cccc2c1C(=CNc1ccccc1)C(=O)N2` [Example 58, 4-Methyl-3-phenylaminomethylene-1,3-dihydro-indol-2-one], the IC50 in assay [1] is 0.81 µM; in assay [1] (Homo sapiens) it was not above 1 µM; in assay [2], 0.36 µM. In assay [1] (Homo sapiens, 10 μM), the inhibition at 10 µM turned out to be 86.6%.
`COc1ccc(NC=C2C(=O)Nc3cccc(C)c32)cc1` [Example 59, 3-[(4-Methoxy-phenylamino)-methylene]-4-methyl-1,3-dihydro-indol-2-one]: in assay [1] (Homo sapiens, 10 μM), the inhibition at 10 µM was 86%. The half-inhibitory concentration (IC50) came out at 1.65 µM in assay [1] (Homo sapiens) and 0.18 µM in assay [2].
With `Cc1cccc2c1C(=CNc1cccc(O)c1)C(=O)N2` [Example 60, 3-[(3-Hydroxy-phenylarmino)-methylene]-4-methyl-1,3-dihydro-indol-2-one], in assay [1] (Homo sapiens, 10 μM), the inhibition at 10 µM amounted to 94%. Also, the IC50 in assay [1] (Homo sapiens) is 1.33 µM; in assay [2], 0.28 µM.
As for `COc1ccc(NC=C2C(=O)Nc3ccc(Cl)cc32)cc1O` [Example 65, 3-[(3-Hydroxy-4-methoxyphenylamino)-methylene]-5-chloro-1,3-dihydro-indol-2-one], the inhibition at 10 µM in assay [1] (Homo sapiens, 10 μM) came to 95.5%. Besides, the concentration for half-maximal inhibition (IC50) is 1.1 µM in assay [1] (Homo sapiens) and 0.53 µM in assay [2].
Taken in the same sequence, the figures for `CC(O)c1ccc(NC=C2C(=O)Nc3ccc(Cl)cc32)cc1` (centres unmarked) [Example 72, 5-Chloro-3-{[4-(1-hydroxy-ethyl)-phenylamino]-methylene}-1,3-dihydro-indol-2-one] were 81.5%, 1.56 µM and 0.43 µM.
Taken in the same sequence, the figures for `COc1ccc(NC=C2C(=O)Nc3ccc(Cl)cc32)cc1` [Example 73, 3-[(4-Methoxyphenylamino)-methylene]-5-chloro-1,3-dihydro-indol-2-one] were 56.5%, 3.65 µM and 0.26 µM.
Take `CCOc1ccc(NC=C2C(=O)Nc3ccccc32)cc1` [Example 82, 3-[(4-Ethoxyphenylamino)-methylene]-1,3-dihydro-indol-2-one]: the IC50 in assay [1] (Homo sapiens) came to 2.5 µM; in assay [2], 0.38 µM.
With `O=C1Nc2ccccc2C1=CNc1ccc(CCO)cc1` [Example 87, 3-{[4-(2-Hydroxyethyl)phenylamino]-methylene}-1,3-dihydro-indol-2-one], the inhibition at 10 µM in assay [1] (Homo sapiens, 10 μM) worked out at 79.5%. The IC50 was 2.25 µM in assay [1] (Homo sapiens) and 0.46 µM in assay [2].
Regarding `O=C1Nc2ccccc2C1=CNc1ccc(CO)cc1` [Example 88, 3-[(4-Hydroxymethyl-phenylamino)-methylene]-1,3-dihydro-indol-2-one], the IC50 in assay [1] is 1 µM; in assay [1] (Homo sapiens), not above 1 µM; in assay [2] it was 0.41 µM. The inhibition at 10 µM in assay [1] (Homo sapiens, 10 μM) was determined as 97.5%.
With `Cc1cccc2c1C(=CNc1ccc3cn[nH]c3c1)C(=O)N2` [Example 90, 3-[(1H-Indazol-6-ylamino)-methylene]-4-methyl-1,3-dihydro-indol-2-one], the inhibition at 10 µM in assay [1] (Homo sapiens, 10 μM) is 97.8%. This compound showed an IC50 in assay [2] of 0.22 µM.
